Reference: US11051510B2, “Asymmetric formales and acetales as adjuvants for crop protection” (BASF SE, priority 2014, dated 2021)

Tested on: Puccinia recondita
Assay: Greenhouse test on wheat infected with Puccinia recondita at full and reduced dose rate (Example 12)
Format: in vivo, Puccinia recondita on wheat (species "Kanzler")
Settings: for Infected leaf area at 25% dose rate: 2.5 g/ha pesticide (epoxiconazole) and 5 g/ha adjuvant; for Infected leaf area at 100% dose rate: 10 g/ha pesticide (epoxiconazole) and 20 g/ha adjuvant
Description: The biological activity was assessed in a greenhouse on wheat (species “Kanzler”), which was infected with Puccinia recondita at two leafs stage and incubated for three days at high humidity. The plants were sprayed (spray volume 200 l/ha) with a composition comprising 50 ppm (10 g/ha) epoxiconazole and 100 ppm (20 g/ha) of the respective adjuvant samples from Example 1-9. In the comparative example no adjuvant was added. The plants were further cultivated for ten days at 20-24° C. and 60-90% relative humidity. Finally, the percentage of the infected leaf area was visually inspected. Each value was based on three replicates.
The biological activity was assessed in a greenhouse as described in Example 11 with a dose rate of 10 g/ha pesticide and 20 g/ha adjuvant (“100%” in Table 4) and a reduced dose rate of 2.5 g/ha pesticide and 5 g/ha adjuvant (“25%” in Table 4). In this test the adjuvants from Example 1 (formula A), Example 2 (formula B) and as comparative adjuvant butyl endcapped ethoxylated (5EO) n-dodecanol (formula C) were compared. All three compounds are butyl endcapped. Formula A and C have the same degree of ethoxylation of five ethylene oxide (EO) units. Formula B (only 3 EO) and C have a similar overall molecule weight. n-C12-18—[O—CH2—CH2]5—O—CH2—O—CH2—CH2—O—Bu (A) n-C12-18—[O—CH2—CH2]3—O—CH2—O—CH2—CH2—O—Bu (B) n-C12[O—CH2—CH2]5—Bu (C)

Substance	Infected leaf area at 25% dose rate [%]	Infected leaf area at 100% dose rate [%]
butyl endcapped ethoxylated (5EO) n-dodecanol [(C), reference compound]	38	8
n-C12-18—[O—CH2—CH2]3—O—CH2—O—CH2—CH2—O—Bu [(B)]	13	6
n-C12-18—[O—CH2—CH2]5—O—CH2—O—CH2—CH2—O—Bu [(A)]	23	7
